This is an account of results in patent US4161538A, “Substituted phenylacetic acid derivatives and process for the preparation thereof” (Sankyo Company Limited, priority 1977, dated 1979).

Counter-ions that a name gives are not always drawn.

The test system of assay [1] is thermally induced pain. Put plainly: Analgesic activity, thermally induced pain method. The assay is classed as in vivo, Wistar strain rat. The note with it: for inhibition in vivo at 19 mg/kg: Rattus norvegicus, po, 19 mg/kg P.O.; for Inhibition(%) Analgesic 19 mg/kg (P.O.): rat. An excerpt: [Y. Iizuka, K. Tanaka; Folia Pharmacol. Jap., 70, 697(1974)]
For assay [2], the system named is carrageenin edema. Put plainly: Anti-inflammatory activity, carrageenin edema method. It is filed as in vivo, Wistar strain rat. The note with it: for inhibition in vivo at 25 mg/kg: Rattus norvegicus, po. The text has this:
The carrageenin edema method was employed using Wistar strain rat. [C. A. Winter, E. A. Risley, G. W. Nuss; J. Pharmacol. Exp. Therap., 141, 369(1963)]
A general note: The carrageenan paw model is a standard test of acute inflammation.

Usually inhibition in vivo stands for how much of the control response was suppressed. For the molecule `O=C(O)Cc1ccc(CC2CCCC2=NO)cc1` (single isomer, unassigned) [4-(2-Hydroxyiminocyclopentan-1-ylmethyl)phenylacetic Acid], the inhibition in vivo at 19 mg/kg in assay [1] was 54.8%. Further, the inhibition in vivo at 25 mg/kg in assay [2] (25 mg/kg P.O.) came to 49.7%.

For `CC(C(=O)O)c1ccc(CC2CCCC2=O)cc1` [2-(4-(2-Oxocyclopentan-1-ylmethyl)phenyl)-propionic acid I-a] [2-[4-(2-Oxocyclopentan-1-ylmethyl)phenyl]-propionic Acid L-Arginine Salt], in assay [1], the “Inhibition(%) Analgesic 19 mg/kg (P.O.)” value is 66.7%. Further, the “Inhibition(%) Anti-inflammatory 25 mg/kg (P.O.)” value in assay [2] (rat, 25 mg/kg P.O.) was 69.8%.

Take `CC(C(=O)O)c1ccc(CC2CCCC2=O)cc1` (stereo not shown) [2-(4-(2-Oxocyclopentan-1-ylmethyl)phenyl)-propionic acid] [2-[4-(2-Oxocyclopentan-1-ylmethyl)phenyl]-propionic Acid]: in assay [1], the “Inhibition(%) Analgesic 19 mg/kg (P.O.)” value stood at 95.8%.

`CC(C(=O)O)c1ccc(CC2CCCCC2=NO)cc1` (stereo not shown) [2-[4-(2-Hydroxyiminocyclohexan-1-ylmethyl)phenyl]propionic Acid]: the inhibition in vivo at 19 mg/kg in assay [1] was 53.1%. Further, in assay [2] (25 mg/kg P.O.), the inhibition in vivo at 25 mg/kg came out at 78.2%.

`CC(C(=O)O)c1ccc(CC2CCCC2=NO)cc1` (stereo not shown) [2-[4-(2-Hydroxyiminocyclopentan-1-ylmethyl)phenyl]propionic Acid]: in assay [1], the inhibition in vivo at 19 mg/kg worked out at 70%. The molecule also came in with an inhibition in vivo at 25 mg/kg in assay [2] (25 mg/kg P.O.) of 67.4%.

On to `CC(C(=O)O)c1ccc(CC2CCCCC2=O)cc1` (stereo not shown) [2-[4-(2-Oxocyclohexan-1-ylmethyl)phenyl]-propionic Acid], for which 19 mg/kg produced 63.3% inhibition in vivo in assay [1]. This molecule also showed an inhibition in vivo at 25 mg/kg in assay [2] (25 mg/kg P.O.) of 79.9%.

The molecule `CC(C(=O)O)c1ccc(CC2CCCC2=O)cc1` (stereo not shown) [2-[4-(2-Oxocyclopentan-1-ylmethyl)phenyl]-propionic Acid] yielded an inhibition in vivo at 25 mg/kg in assay [2] (25 mg/kg P.O.) of 51.4%.

In assay [1], `O=C(O)Cc1ccc(CC2CCCCC2=O)cc1` (stereo not shown) [4-(2-Oxocyclohexan-1-ylmethyl)phenylacetic Acid] displayed an inhibition in vivo at 19 mg/kg of 45.1%. The same molecule returned an inhibition in vivo at 25 mg/kg in assay [2] (25 mg/kg P.O.) of 35.1%.

In assay [1], `O=C(O)Cc1ccc(CC2CCCC2=O)cc1` (stereo not shown) [4-(2-Oxocyclopentan-1-ylmethyl)phenylacetic Acid] gave an inhibition in vivo at 19 mg/kg of 42.5%. The inhibition in vivo at 25 mg/kg in assay [2] (25 mg/kg P.O.) was 65.6%.

In assay [1], `CCCCC1C(=O)N(c2ccccc2)N(c2ccccc2)C1=O` [Phenylbutazone, reference compound] displayed an inhibition in vivo at 19 mg/kg of 37%. This molecule also had an inhibition in vivo at 25 mg/kg in assay [2] (25 mg/kg P.O.) of 30.6%. The “Inhibition(%) Anti-inflammatory (100 mg/kg)” value in assay [2] (rat, 100 mg/kg (P.O.), reference medicine) was 57.4%.
